Tests used:
Assay in all cases: relative viability (nuclei count vs DMSO), 5 days (fraction); higher = more cells survive
NCI-H2085 = tested on: NCI-H2085
How it was run: (§1)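 One day after seeding in 1536-well plates, lung cancer cell lines were dosed by pin tool. Dosing was either single-drug or a fixed anchor-drug dose plus five library-drug doses (not always all listed) in √10 steps. After 5 days, nuclei were stained in one fix-and-stain step and counted on 4× images, and relative viability is the nuclei count of treated wells over that of vehicle wells, given as the median of duplicate plates.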

NCI-H1792 = tested on: NCI-H1792
How it was run: as §1

NCI-H1666 = tested on: NCI-H1666
How it was run: as §1

NCI-H1944 = tested on: NCI-H1944
How it was run: as §1

LC-2-ad = tested on: LC-2-ad
How it was run: as §1

NCI-H460 = tested on: NCI-H460
How it was run: as §1

NCI-H1793 = tested on: NCI-H1793
How it was run: as §1

EPLC-272H = tested on: EPLC-272H
How it was run: as §1

LU99A = tested on: LU99A
How it was run: as §1

UMC-11 = tested on: UMC-11
How it was run: as §1

NCI-H2170 = tested on: NCI-H2170
How it was run: as §1

NCI-H2009 = tested on: NCI-H2009
How it was run: as §1

HCC-78 = tested on: HCC-78
How it was run: as §1

SK-LU-1 = tested on: SK-LU-1
How it was run: as §1

COR-L 105 = tested on: COR-L 105
How it was run: as §1

A-427 = tested on: A-427
How it was run: as §1

LXF-289 = tested on: LXF-289
How it was run: as §1

HOP-62 = tested on: HOP-62
How it was run: as §1

NCI-H1915 = tested on: NCI-H1915
How it was run: as §1

HCC-366 = tested on: HCC-366
How it was run: as §1

NCI-H358 = tested on: NCI-H358
How it was run: as §1

COc1cc2nccc(Oc3ccc(NC(=O)Nc4cc(C)on4)c(Cl)c3)c2cc1OC [Tivozanib] + CS(=O)(=O)CCNCc1ccc(-c2ccc3ncnc(Nc4ccc(OCc5cccc(F)c5)c(Cl)c4)c3c2)o1 [Lapatinib] (partner 2 µM)
relative viability (NCI-H2085; first compound 0.005 µM): 0.66 | relative viability (NCI-H2085; first compound 0.01581 µM): 0.769 | relative viability (NCI-H2085; first compound 0.05 µM): 0.774 | relative viability (NCI-H2085; first compound 0.1581 µM): 0.579 | relative viability (NCI-H2085; first compound 0.5 µM): 0.627 | relative viability (NCI-H1792; first compound 0.005 µM): 0.901 | relative viability (NCI-H1792; first compound 0.01581 µM): 0.925 | relative viability (NCI-H1792; first compound 0.05 µM): 0.922 | relative viability (NCI-H1792; first compound 0.1581 µM): 0.841 | relative viability (NCI-H1792; first compound 0.5 µM): 1.01 | relative viability (NCI-H1666; first compound 0.005 µM): 0.561 | relative viability (NCI-H1666; first compound 0.01581 µM): 0.621 | relative viability (NCI-H1666; first compound 0.05 µM): 0.641 | relative viability (NCI-H1666; first compound 0.1581 µM): 0.607 | relative viability (NCI-H1666; first compound 0.5 µM): 0.84 | relative viability (NCI-H1944; first compound 0.005 µM): 0.826 | relative viability (NCI-H1944; first compound 0.01581 µM): 0.888 | relative viability (NCI-H1944; first compound 0.05 µM): 0.758 | relative viability (NCI-H1944; first compound 0.1581 µM): 0.666 | relative viability (NCI-H1944; first compound 0.5 µM): 0.841 | relative viability (LC-2-ad; first compound 0.005 µM): 0.959 | relative viability (LC-2-ad; first compound 0.01581 µM): 0.944 | relative viability (LC-2-ad; first compound 0.05 µM): 0.856 | relative viability (LC-2-ad; first compound 0.1581 µM): 0.542 | relative viability (LC-2-ad; first compound 0.5 µM): 0.466 | relative viability (NCI-H460; first compound 0.005 µM): 0.889 | relative viability (NCI-H460; first compound 0.01581 µM): 1 | relative viability (NCI-H460; first compound 0.05 µM): 0.979 | relative viability (NCI-H460; first compound 0.1581 µM): 1.12 | relative viability (NCI-H460; first compound 0.5 µM): 0.948 | relative viability (NCI-H1793; first compound 0.005 µM): 0.619 | relative viability (NCI-H1793; first compound 0.01581 µM): 0.478 | relative viability (NCI-H1793; first compound 0.05 µM): 0.696 | relative viability (NCI-H1793; first compound 0.5 µM): 0.867 | relative viability (EPLC-272H; first compound 0.005 µM): 0.854 | relative viability (EPLC-272H; first compound 0.01581 µM): 0.844 | relative viability (EPLC-272H; first compound 0.05 µM): 0.938 | relative viability (EPLC-272H; first compound 0.1581 µM): 0.806 | relative viability (EPLC-272H; first compound 0.5 µM): 0.671 | relative viability (LU99A; first compound 0.005 µM): 0.914 | relative viability (LU99A; first compound 0.01581 µM): 0.924 | relative viability (LU99A; first compound 0.05 µM): 0.967 | relative viability (LU99A; first compound 0.5 µM): 0.919 | relative viability (UMC-11; first compound 0.005 µM): 0.901 | relative viability (UMC-11; first compound 0.01581 µM): 0.983 | relative viability (UMC-11; first compound 0.05 µM): 1.01 | relative viability (UMC-11; first compound 0.5 µM): 0.839 | relative viability (NCI-H2170; first compound 0.005 µM): 0.252 | relative viability (NCI-H2170; first compound 0.01581 µM): 0.296 | relative viability (NCI-H2170; first compound 0.05 µM): 0.266 | relative viability (NCI-H2170; first compound 0.5 µM): 0.289 | relative viability (NCI-H2009; first compound 0.005 µM): 0.88 | relative viability (NCI-H2009; first compound 0.01581 µM): 1.1 | relative viability (NCI-H2009; first compound 0.05 µM): 0.937 | relative viability (NCI-H2009; first compound 0.1581 µM): 0.896 | relative viability (NCI-H2009; first compound 0.5 µM): 0.909 | relative viability (HCC-78; first compound 0.005 µM): 0.683 | relative viability (HCC-78; first compound 0.01581 µM): 0.772 | relative viability (HCC-78; first compound 0.05 µM): 0.851 | relative viability (HCC-78; first compound 0.1581 µM): 1.58 | relative viability (HCC-78; first compound 0.5 µM): 0.455 | relative viability (SK-LU-1; first compound 0.005 µM): 0.827 | relative viability (SK-LU-1; first compound 0.01581 µM): 0.809 | relative viability (SK-LU-1; first compound 0.05 µM): 0.895 | relative viability (SK-LU-1; first compound 0.1581 µM): 0.704 | relative viability (SK-LU-1; first compound 0.5 µM): 0.738 | relative viability (COR-L 105; first compound 0.01581 µM): 0.317 | relative viability (COR-L 105; first compound 0.05 µM): 0.368 | relative viability (COR-L 105; first compound 0.1581 µM): 0.322 | relative viability (COR-L 105; first compound 0.5 µM): 0.339 | relative viability (A-427; first compound 0.005 µM): 1.02 | relative viability (A-427; first compound 0.01581 µM): 1.04 | relative viability (A-427; first compound 0.05 µM): 1.04 | relative viability (A-427; first compound 0.1581 µM): 0.96 | relative viability (A-427; first compound 0.5 µM): 1.06 | relative viability (LXF-289; first compound 0.005 µM): 0.888 | relative viability (LXF-289; first compound 0.01581 µM): 0.886 | relative viability (LXF-289; first compound 0.05 µM): 0.902 | relative viability (LXF-289; first compound 0.1581 µM): 0.946 | relative viability (LXF-289; first compound 0.5 µM): 0.905 | relative viability (HOP-62; first compound 0.005 µM): 0.932 | relative viability (HOP-62; first compound 0.01581 µM): 0.944 | relative viability (HOP-62; first compound 0.05 µM): 0.994 | relative viability (HOP-62; first compound 0.1581 µM): 0.787 | relative viability (HOP-62; first compound 0.5 µM): 0.87 | relative viability (NCI-H1915; first compound 0.005 µM): 0.992 | relative viability (NCI-H1915; first compound 0.01581 µM): 0.928 | relative viability (NCI-H1915; first compound 0.05 µM): 0.946 | relative viability (NCI-H1915; first compound 0.1581 µM): 0.965 | relative viability (NCI-H1915; first compound 0.5 µM): 0.882 | relative viability (HCC-366; first compound 0.005 µM): 0.991 | relative viability (HCC-366; first compound 0.01581 µM): 1.08 | relative viability (HCC-366; first compound 0.05 µM): 1.12 | relative viability (HCC-366; first compound 0.1581 µM): 1.03 | relative viability (HCC-366; first compound 0.5 µM): 0.976 | relative viability (NCI-H358; first compound 0.005 µM): 0.476 | relative viability (NCI-H358; first compound 0.01581 µM): 0.563 | relative viability (NCI-H358; first compound 0.05 µM): 0.479 | relative viability (NCI-H358; first compound 0.1581 µM): 0.435 | relative viability (NCI-H358; first compound 0.5 µM): 0.499
